From PubChem BioAssay AID1918948 (Molecular Pharmacology Branch, DTP, NCI, 2023)

Tested on: K-562 leukemia growth, % test/control
Assay: Anticancer human tumor K-562 cell line growth inhibition;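 for viability, T/C: 100% = DMSO vehicle wells and lower values mean fewer viable cells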
Conditions: spheroids with HUVEC and MSC; for IC50: curve of first compound; for viability, T/C: stronger effect = lower value
Method in brief: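 Complex spheroids of tumor cells with HUVEC and human MSCs, exposed to iadademstat combined with other agents. Each agent tested in half-log steps from near clinical Cmax (else 10 microM top), DMSO ≤0.25%.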

[1] = second compound 0.1 µM, first compound 0.00949 µM
[2] = second compound 0.1 µM, first compound 0.03 µM
[3] = second compound 0.1 µM, first compound 0.0949 µM
[4] = second compound 0.1 µM, first compound 0.3 µM
[5] = second compound 0.316 µM, first compound 0.00949 µM
[6] = second compound 0.316 µM, first compound 0.03 µM
[7] = second compound 0.316 µM, first compound 0.0949 µM
[8] = second compound 0.316 µM, first compound 0.3 µM
[9] = second compound 1 µM, first compound 0.00949 µM
[10] = second compound 1 µM, first compound 0.03 µM
[11] = second compound 1 µM, first compound 0.0949 µM
[12] = second compound 1 µM, first compound 0.3 µM
[13] = second compound 3.16 µM, first compound 0.00949 µM
[14] = second compound 3.16 µM, first compound 0.03 µM
[15] = second compound 3.16 µM, first compound 0.0949 µM
[16] = second compound 3.16 µM, first compound 0.3 µM
[17] = second compound 10 µM, first compound 0.00949 µM
[18] = second compound 10 µM, first compound 0.03 µM
[19] = second compound 10 µM, first compound 0.0949 µM
[20] = second compound 10 µM, first compound 0.3 µM

CC1COCCN1c1cc(C2(S(C)(=N)=O)CC2)nc(-c2ccnc3[nH]ccc23)n1 (stereo not given) + NC1CC1c1ccc(-c2cccc(O)c2)cc1
IC50 (second compound 0.1 µM): 1590 nM | IC50 (second compound 0.316 µM): 1580 nM | IC50 (second compound 1 µM): 1500 nM | IC50 (second compound 3.16 µM): 1490 nM | IC50 (second compound 10 µM): 1350 nM | viability, T/C (second compound 0.1 µM, first compound 0.0316 µM): 115% | viability, T/C (second compound 0.1 µM, first compound 0.1 µM): 107% | viability, T/C (second compound 0.1 µM, first compound 0.316 µM): 108% | viability, T/C (second compound 0.1 µM, first compound 1 µM): 77.3% | viability, T/C (second compound 0.1 µM, first compound 3.16 µM): 9.88% | viability, T/C (second compound 0.1 µM, first compound 10 µM): 2.95% | viability, T/C (second compound 0.316 µM, first compound 0.0316 µM): 100% | viability, T/C (second compound 0.316 µM, first compound 0.1 µM): 107% | viability, T/C (second compound 0.316 µM, first compound 0.316 µM): 101% | viability, T/C (second compound 0.316 µM, first compound 1 µM): 77.9% | viability, T/C (second compound 0.316 µM, first compound 3.16 µM): 7.2% | viability, T/C (second compound 0.316 µM, first compound 10 µM): 2.06% | viability, T/C (second compound 1 µM, first compound 0.0316 µM): 105% | viability, T/C (second compound 1 µM, first compound 0.1 µM): 104% | viability, T/C (second compound 1 µM, first compound 0.316 µM): 103% | viability, T/C (second compound 1 µM, first compound 1 µM): 74% | viability, T/C (second compound 1 µM, first compound 3.16 µM): 6.19% | viability, T/C (second compound 1 µM, first compound 10 µM): 1.92% | viability, T/C (second compound 3.16 µM, first compound 0.0316 µM): 109% | viability, T/C (second compound 3.16 µM, first compound 0.1 µM): 105% | viability, T/C (second compound 3.16 µM, first compound 0.316 µM): 99.2% | viability, T/C (second compound 3.16 µM, first compound 1 µM): 72.8% | viability, T/C (second compound 3.16 µM, first compound 3.16 µM): 6.87% | viability, T/C (second compound 3.16 µM, first compound 10 µM): 2.7% | viability, T/C (second compound 10 µM, first compound 0.0316 µM): 105% | viability, T/C (second compound 10 µM, first compound 0.1 µM): 105% | viability, T/C (second compound 10 µM, first compound 0.316 µM): 106% | viability, T/C (second compound 10 µM, first compound 1 µM): 65.7% | viability, T/C (second compound 10 µM, first compound 3.16 µM): 5.01% | viability, T/C (second compound 10 µM, first compound 10 µM): 2.52%

CCN(c1cc(-c2ccc(CN3CCOCC3)cc2)cc(C(=O)NCc2c(C)cc(C)[nH]c2=O)c1C)C1CCOCC1 + NC1CC1c1ccc(-c2cccc(O)c2)cc1
IC50 (second compound 0.1 µM): 2040 nM | IC50 (second compound 0.316 µM): 1940 nM | IC50 (second compound 1 µM): 1790 nM | IC50 (second compound 3.16 µM): 1650 nM | IC50 (second compound 10 µM): 904 nM | viability, T/C [1]: 116% | viability, T/C [2]: 117% | viability, T/C [3]: 116% | viability, T/C [4]: 110% | viability, T/C (second compound 0.1 µM, first compound 0.949 µM): 82.9% | viability, T/C (second compound 0.1 µM, first compound 3 µM): 33.5% | viability, T/C [5]: 115% | viability, T/C [6]: 117% | viability, T/C [7]: 115% | viability, T/C [8]: 108% | viability, T/C (second compound 0.316 µM, first compound 0.949 µM): 80.5% | viability, T/C (second compound 0.316 µM, first compound 3 µM): 31.6% | viability, T/C [9]: 108% | viability, T/C [10]: 111% | viability, T/C [11]: 118% | viability, T/C [12]: 110% | viability, T/C (second compound 1 µM, first compound 0.949 µM): 75.9% | viability, T/C (second compound 1 µM, first compound 3 µM): 28.9% | viability, T/C [13]: 109% | viability, T/C [14]: 111% | viability, T/C [15]: 114% | viability, T/C [16]: 103% | viability, T/C (second compound 3.16 µM, first compound 0.949 µM): 70.8% | viability, T/C (second compound 3.16 µM, first compound 3 µM): 27.7% | viability, T/C [17]: 105% | viability, T/C [18]: 109% | viability, T/C [19]: 109% | viability, T/C [20]: 92.2% | viability, T/C (second compound 10 µM, first compound 0.949 µM): 48.5% | viability, T/C (second compound 10 µM, first compound 3 µM): 20.1%

Nc1ncn(C2CC(O)C(CO)S2)c(=O)n1 (stereo not given) + NC1CC1c1ccc(-c2cccc(O)c2)cc1
IC50 (second compound 0.1 µM): 91.1 nM | IC50 (second compound 0.316 µM): 84.4 nM | IC50 (second compound 1 µM): 79 nM | IC50 (second compound 3.16 µM): 76.8 nM | IC50 (second compound 10 µM): 55.8 nM | viability, T/C (second compound 0.1 µM, first compound 0.000949 µM): 110% | viability, T/C (second compound 0.1 µM, first compound 0.003 µM): 108% | viability, T/C [1]: 107% | viability, T/C [2]: 93.2% | viability, T/C [3]: 48.4% | viability, T/C [4]: 17.1% | viability, T/C (second compound 0.316 µM, first compound 0.000949 µM): 103% | viability, T/C (second compound 0.316 µM, first compound 0.003 µM): 104% | viability, T/C [5]: 103% | viability, T/C [6]: 90.3% | viability, T/C [7]: 45.5% | viability, T/C [8]: 16.3% | viability, T/C (second compound 1 µM, first compound 0.000949 µM): 102% | viability, T/C (second compound 1 µM, first compound 0.003 µM): 103% | viability, T/C [9]: 104% | viability, T/C [10]: 88% | viability, T/C [11]: 42.9% | viability, T/C [12]: 15.6% | viability, T/C (second compound 3.16 µM, first compound 0.000949 µM): 98.5% | viability, T/C (second compound 3.16 µM, first compound 0.003 µM): 105% | viability, T/C [13]: 102% | viability, T/C [14]: 85.6% | viability, T/C [15]: 42.1% | viability, T/C [16]: 16.3% | viability, T/C (second compound 10 µM, first compound 0.000949 µM): 98.8% | viability, T/C (second compound 10 µM, first compound 0.003 µM): 101% | viability, T/C [17]: 98% | viability, T/C [18]: 72.6% | viability, T/C [19]: 30.5% | viability, T/C [20]: 12.3%
